In patent publication US10828312B2, “Lithium cholesterol compositions, including, but not limited to lithium cholesterol sulfate compositions, and methods of treatment for Alzheimer's disease and neurological disorders” (priority 2018, dated 2020):
Entries after “also recorded” stand apart in the source; their conditions may differ. Structures can show the parent of a compound that is named as a salt. Where two headings read alike, the source gives them in different places.

What was measured:
[1] = rats; cited from earlier work
AD pathology = details: cited from earlier work
[2] = mice; cited from earlier work
[3] = rats; cited from earlier work; remark: listed apart in the source
autistic features = details: 2 mmol/kg i.p./day, Sprague-Dawley rats; cited from earlier work
[4] = Lithium levels in blood plasma, brain, kidney and liver of mice after oral gavage (lithium ELISA); format: in vivo, C57BL/6J male mice
Experimental: C57BL/6J male mice at 4 months of age were treated with LiCl or LiCS at 0.04 mmol lithium/mouse p.o by gavage, followed by determination of lithium levels in blood plasma, brain, kidney and liver at 0.5, 1, 2, 3, 5 and 24 h after gavage by ELISA (N=2 mice/time point).
At 0.5, 1, 2, 3, 5 and 24 h after treating mice with LiCl or LiCS p.o. by gavage, mice were anesthetized with isoflourane (50 mg/kg) (Sigma-Aldrich), euthanized by bilateral thoracotomy, and blood was collected. Brain, kidney, and liver were harvested, homogenized in 400 μL ddH2O with Minilys tissue homogenizer (Bertin Technologies, Montigny-le-Bretonneux, France), and centrifuged for 30 min. Lithium levels in plasma and supematants from brain, kidney, and liver homogenates were determined by ELISA (Biovision, Milpitas, Calif.) following the manufacturer's instructions. Plasma, brain, kidney and liver homogenates from control mice were used to generate standard curve.

LPS-induced TNFα = format: cell-based, mouse; details: for concentration at which decrease of LPS-induced TNFα starts: LPS 100 ng/ml, 3 h
[5] = test system: GSK3β (Ser9) phosphorylation; experiment: Inhibitory GSK3β (Ser9) phosphorylation by Western blot in CHO cells; format: cell-based, Chinese Hamster; details: for maximal increase of pGSK3β: 18 h, vs no treatment; for concentration at which increase of pGSK3β starts: 18 h treatment, WB densitometry
Experimental: (§1) Human neuroblastoma SH-SY5Y cells (ATCC, Manassas, Va.) were cultured in DMEM/Nutrient Mixture F-12 (DMEM/F-12), 10% fetal bovine serum (FBS) and 15 mM HEPES. Chinese Hamster Ovary cells (CHO, Millipore Sigma), human embryonic kidney 293 cells expressing wild-type tau (HEK293/tau cells, ATCC) and mouse BV2 microglial cells (Creative Bioarray, Shirley, N.Y.) were cultured in DMEM with 10% FBS. SH-SY5Y cells and CHO cells were cultured in 24-well plates at a density of 2.5×10^5 cells/well. HEK293/tau cells were cultured in 24-well plates at a density of 3.5×10^5 cells/well, after being treated with Tetracycline (1:1000) for about 24 h to create high and stable cells lines (24).
(§2) Cells were treated with LiCS or NaCS at 0, 5, 10, 20, 40, 60 or 90 μM or LiCl at 0, 0.06, 0.15, 0.3, 0.6, 1.2 and 2.5 mM for 18 hours, followed by washing with ice-cold PBS 3×, lysis with cell lysis buffer and centrifugation at 1.4×10^4 rpm for 20 minutes. The supernatants were then used for analysis of GSK3β (Ser) and tau (Thr^231) phosphorylation by Western Blot (WB) and WB bands were calculated by Image J software (Java 1.6.0_20, NIH, USA).

[6] = test system: GSK3β (Ser9) phosphorylation; experiment: Inhibitory GSK3β (Ser9) phosphorylation by Western blot in SH-SY5Y cells; format: cell-based, Human; details: for maximal increase of pGSK3β: 18 h; for concentration at which increase of pGSK3β starts: 18 h treatment, WB densitometry
Experimental: as §1, §2

[7] = test system: GSK3β (Ser9) phosphorylation; experiment: Inhibitory GSK3β (Ser9) phosphorylation and total GSK3β by Western blot, statements covering both CHO and SH-SY5Y cells; format: cell-based; details: for effect on total GSK3β levels: any dose; for concentration at which increase of pGSK3β starts / maximal increase of pGSK3β: both CHO and SH-SY5Y cells (summary)
Experimental: as §1, §2

[8] = test system: tau (Thr231) phosphorylation; experiment: Tau (Thr231) phosphorylation by Western blot in HEK293/tau cells; format: cell-based, human; details: for effect on total tau levels: any dose
Experimental: as §1, §2

[9] = all liposomes tested; cited from earlier work
[10] = long term oral administration, Tg2576 and 3XTg AD mice
[11] = 0.04 mmol lithium/mouse p.o., 0.5 and 5 h after gavage
[12] = NaCS at any dose between 5 and 90 μM, sulfate

SMILES: O=C([O-])c1ccccc1O.[Li+] [lithium salicylate]
- plasma lithium levels and elimination compared with lithium lactate [1]: longer elevated plasma lithium levels with a slower elimination process

SMILES: O=C(O)[C@@H]1CCCN1.O=C([O-])c1ccccc1O.[Li+] [LISPRO]
- AD-related behavioral impairment (AD pathology; AD mouse models): reduced AD-related behavioral impairment
- AD pathology (β-amyloid plaques, tau hyperphosphorylation, neuroinflammation, neuronal and synaptic protein loss, GSK3β activity) (AD pathology; [10]): reduced AD pathology
- renal inflammation (AD pathology; [10]): without eliciting renal inflammation
- brain lithium levels compared with lithium carbonate or lithium salicylate [2]: significantly higher brain lithium levels
- plasma lithium levels compared with lithium carbonate or lithium salicylate [2]: more steady plasma lithium levels
- brain lithium levels compared with lithium carbonate or lithium salicylate [3]: significantly higher brain lithium levels
- plasma lithium levels compared with lithium carbonate or lithium salicylate [3]: more steady plasma lithium levels

SMILES: [Cl-].[Li+] [LiCl, lithium chloride]
- autistic features (social interaction deficit, repetitive self-grooming, anxiety, depression) (autistic features): reversed autistic features
- lithium levels in the brain [4, 11]: increased at 5 h
- lithium levels in the kidney [4, 11]: increased at 0.5 and 5 h; also recorded: markedly increases
- lithium levels in the liver [4, 11]: failed to increase at any time
- concentration at which decrease of LPS-induced TNFα starts (LPS-induced TNFα; BV2 cells): 5 mM
- maximal increase of pGSK3β ([5]; LiCl at 1.25 mM): 91%
- concentration at which increase of pGSK3β starts [5]: 160 μM
- maximal increase of pGSK3β ([6]; LiCl at 2.5 mM): 119%
- concentration at which increase of pGSK3β starts [6]: 60 μM
- extent of pGSK3β increase at 60 μM [7]: minimally
- concentration levels at which pGSK3β increased ([7]; CHO and SH-SY5Y cells): high micromolar and low millimoloar levels
- effect on total GSK3β levels ([7]; 18 h, CHO and SH-SY5Y cells): without altering; also recorded: neither LiCS, LiCl nor NaCS altered
- concentration at which increase of pGSK3β starts [7]: 60 μM
- maximal increase of pGSK3β ([7]; LiCl at 1.25 mM): approximately 100%
- effect on ptau (Thr231) ([8]; LiCl at any dose between 60 μM and 1.25 mM, 18 h): not altered; also recorded: neither LiCl at any dose between 60 μM and 1.25 mM nor NaCS at any dose between 5 and 60 μM altered ptau; also recorded: ineffective even at millimolar levels; also recorded: failed to alter
- effect on total tau levels ([8]; 18 h): neither LiCS, NaCS nor LiCl at any dose altered

SMILES: CC(C)CCC[C@@H](C)[C@H]1CC[C@H]2[C@@H]3CC=C4C[C@@H](OS(=O)(=O)O)CC[C@]4(C)[C@H]3CC[C@]12C [cholesterol sulfate]
- rate of intermembrane exchange relative to cholesterol [9]: approximately 10 fold

SMILES: CC(C)CCC[C@@H](C)[C@H]1CC[C@H]2[C@@H]3CC=C4C[C@@H](OS(=O)(=O)[O-])CC[C@]4(C)[C@H]3CC[C@]12C.[Li+] [LiCS, lithium cholesterol sulfate]
- lithium levels in the liver [4, 11]: failed to increase at any time
- lithium levels in the kidney ([4]; 0.04 mmol lithium/mouse p.o., 0.5 and 5 h after gavage, listed as UCS, sulfate): LiCl but not UCS treatment markedly increases
- lithium levels in the kidney ([4]; 0.04 mmol lithium/mouse p.o., 0.5 and 5 h after gavage, sulfate): failed to increase at any time
- lithium blood levels compared with LiCl oral treatment ([4]; oral treatment, mice): more stable and last longer
- crossing of the blood-brain barrier ([4]; oral treatment, mice, compared with LiCl): more readily crosses the blood-brain barrier
- effectiveness compared with LiCl in reducing microglial LPS-induced TNFα production (LPS-induced TNFα; BV2 cells): more effective than LiCl
- potency relative to LiCl for reducing LPS-induced TNFα production (LPS-induced TNFα; BV2 cells): approximately 250 fold
- concentration at which decrease of LPS-induced TNFα starts (LPS-induced TNFα; BV2 cells): 0.02 mM
- maximal increase of pGSK3β ([5]; LiCS at 60 μM): 92%
- concentration at which increase of pGSK3β starts [5]: 10 μM
- maximal increase of pGSK3β ([6]; LiCS at 90 μM): 90%
- concentration at which increase of pGSK3β starts [6]: 10 μM
- extent of pGSK3β increase at 60 μM [7]: maximally
- concentration levels at which pGSK3β increased ([7]; CHO and SH-SY5Y cells): low micromolar levels
- potency relative to LiCl in increasing inhibitory GSK3β (Ser9) phosphorylation ([7]; CHO and SH-SY5Y cells): 21-28 fold
- effect on total GSK3β levels ([7]; 18 h, CHO and SH-SY5Y cells, sulfate): without altering; also recorded: neither LiCS, LiCl nor NaCS altered
- potency compared with LiCl in increasing inhibitory GSK3β (Ser9) phosphorylation ([7]; both CHO and SH-SY5Y cells): more potent than LiCl
- concentration at which increase of pGSK3β starts [7]: 10 μM
- maximal increase of pGSK3β ([7]; LiCS at 60 μM): approximately 100%
- concentration levels at which tau (Thr231) phosphorylation is reduced ([8]; HEK293/tau cells): at micromolar levels
- concentration at which decrease of ptau (Thr231) starts ([8]; HEK293/tau cells, 18 h): 10 µM
- maximal decrease of ptau (Thr231) ([8]; HEK293/tau cells, 18 h, LiCS at 40 μM): 63%
- effect on total tau levels ([8]; 18 h, listed as UCS, sulfate): without altering
- effect on total tau levels ([8]; 18 h, sulfate): neither LiCS, NaCS nor LiCl at any dose altered

SMILES: CC(C)CCC[C@@H](C)[C@H]1CC[C@H]2[C@@H]3CC=C4C[C@@H](OS(=O)(=O)[O-])CC[C@]4(C)[C@H]3CC[C@]12C.[Na+] [NaCS, sodium cholesterol sulfate]
- effect on LPS-induced TNFα level (LPS-induced TNFα; NaCS at any concentration between 20 and 80 μM): not altered
- effect on LPS-induced TNFα level (LPS-induced TNFα; [12]): did not alter; also recorded: failed to alter
- effect on pGSK3β ([7]; NaCS at 5-90 μM, 18 h, CHO and SH-SY5Y cells, sulfate): did not alter; also recorded: failed to alter
- effect on total GSK3β levels ([7]; 18 h, CHO and SH-SY5Y cells): neither LiCS, LiCl nor NaCS altered
- effect on ptau (Thr231) ([8]; NaCS at any dose between 5 and 60 μM, 18 h, sulfate): neither LiCl at any dose between 60 μM and 1.25 mM nor NaCS at any dose between 5 and 60 μM altered ptau
- effect on ptau (Thr231) [8, 12]: did not alter; also recorded: failed to alter
- effect on total tau levels ([8]; 18 h, sulfate): neither LiCS, NaCS nor LiCl at any dose altered
